# Measurements taken from patent EP4603105A1, “PHARMACEUTICAL COMPOSITION CONTAINING CYCLIC COMPOUND HAVING SELECTIVE KRAS INHIBITORY EFFECT AGAINST HRAS AND NRAS” (CHUGAI SEIYAKU KABUSHIKI KAISHA, priority 2022, dated 2024).
# *1 amine or outer side, *2 acyl side, *3 side chain or, on linkers, in order; H or OH if unused. Where a SMILES comes first, the peptide text is derived from it. Bridges are numbered along the chain shown (N, C = ends). [ ]: non-standard residue; d: D form. The star is where a group is joined. hPhe(3,5-F2-4-CF3) = N[C@@H](CCc1cc(F)c(C(F)(F)F)c(F)c1)C(=O)O; hPhe(3-Cl-4-CF3) = N[C@@H](CCc1ccc(C(F)(F)F)c(Cl)c1)C(=O)O; NPrPhe(4-CF3) = CCCN[C@@H](Cc1ccc(C(F)(F)F)cc1)C(=O)O; X14 = COCCN([C@@H](Cc1ccc(C)cc1)C(=O)[*:2])[*:1]; NMeGly(cPent) = CN[C@H](C(=O)O)C1CCCC1; NMeD = CN[C@@H](CC(=O)O)C(=O)O; NMeL = CN[C@@H](CC(C)C)C(=O)O; αMeS = C[C@](N)(CO)C(=O)O; Morpholide = C1CN(*)CCO1; Ac5c = NC1(C(=O)O)CCCC1; Sar = CNCC(=O)O; Allyl = C=CC*
# Tests used:
# HRAS wild-type protein = HRAS wild-type protein (Homo sapiens, UniProt P01112); experiment: Binding to HRAS by surface plasmon resonance (SPR), KD and KD ratio to KRAS
# Outline: (§1)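 GDP-bound biotin-Avi RAS captured at ~100–300 RU, 30°C, pH 7.4 HBS containing 10 µM GDP, 10 mM MgCl2, 1 mM DTT, 0.01% Tween 20 and 4% DMSO. KD by 1:1 fitting.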
# [1] = target: GDP-bound NRAS wild-type protein (Homo sapiens, UniProt P01111); experiment: Binding to NRAS by surface plasmon resonance (SPR), KD and KD ratio to KRAS
# Outline: as §1
# [2] = tested on: human lung cancer strain NCI-H441; type: cell-based
# Outline: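 Readout: […] after the ATP-based reagent. Compound: serial dilutions in dimethyl sulfoxide.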
# [3] = ratio of the KD value with respect to HRAS wild-type protein to the KD value with respect to KRAS
# [4] = ratio of the KD value with respect to GDP-bound NRAS wild-type protein to the KD value with respect to KRAS
# [5] = ratio of KD for HRAS wild-type protein to KD for KRAS
# [6] = ratio of KD for GDP-bound NRAS wild-type protein to KD for KRAS
# Sequence of GDP-bound NRAS wild-type protein (P01111 whole entry): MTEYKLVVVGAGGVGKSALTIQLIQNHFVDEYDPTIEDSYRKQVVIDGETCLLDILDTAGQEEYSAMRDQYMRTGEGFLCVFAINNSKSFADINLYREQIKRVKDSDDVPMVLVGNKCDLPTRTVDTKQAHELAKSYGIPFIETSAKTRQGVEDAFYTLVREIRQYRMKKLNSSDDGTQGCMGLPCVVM
# Sequence of HRAS wild-type protein (P01112 whole entry): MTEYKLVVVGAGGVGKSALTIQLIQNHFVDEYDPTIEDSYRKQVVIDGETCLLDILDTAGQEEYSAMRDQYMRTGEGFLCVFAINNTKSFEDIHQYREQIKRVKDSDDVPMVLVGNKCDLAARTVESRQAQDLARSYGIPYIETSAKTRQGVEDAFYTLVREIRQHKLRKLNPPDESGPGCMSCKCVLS
Compound,HRAS /KRAS (HRAS wild-type protein; [3]),"NRAS /KRAS [1, 4]",IC50 [2],HRAS /KRAS (HRAS wild-type protein; [5]),"NRAS /KRAS [1, 6]"
CC[C@H](C)[C@@H]1NC(=O)[C@H](CC(C)C)N(C)C(=O)C[C@@H](C(=O)N2CCOCC2)N(C)C(=O)[C@H](C2CCCC2)N(C)C(=O)C2(CCOCC2)NC(=O)[C@@H]2CCCN2C(=O)[C@H](CCc2cc(F)c(C(F)(F)F)c(F)c2)NC(=O)CN(C)C(=O)[C@H](Cc2ccc(C(F)(F)F)cc2)N2CCCCC[C@@H](C2=O)N(C)C(=O)CN(C)C1=O [PP0502],B (a compound having 3 or more and less than 10 is denoted as B),A (a compound having 10 or more and less than 20 is denoted as A),1820 nM,–,–
CCC[C@H]1C(=O)N[C@@H]([C@@H](C)CC)C(=O)N(C)CC(=O)N(C)[C@H]2C/C=C\CCN(C2=O)[C@@H](Cc2ccc(C(F)(F)F)cc2)C(=O)N(C)CC(=O)N[C@@H](CCc2cc(F)c3c(c2)CCC3)C(=O)N2C[C@H](OCC)C[C@H]2C(=O)NC2(CC(C)(C)C2)C(=O)N(C)[C@@H](C2CCCC2)C(=O)N(C)[C@H](C(=O)N(C)C)CC(=O)N1C [PP2849],–,–,28.2 nM,A (a compound having 10 or more and less than 20 is denoted as A),A (a compound having 10 or more and less than 20 is denoted as A)
"C=CCOC[C@]1(C)NC(=O)[C@@H]2CCCN2C(=O)[C@H](CCc2cc(F)c(C(F)(F)F)c(F)c2)NC(=O)CN(C)C(=O)[C@H](Cc2ccc(C(F)(F)F)cc2)N(CCC)C(=O)CN(C)C(=O)CN(C)C(=O)[C@H]([C@@H](C)CC)NC(=O)[C@H](CC(C)C)N(C)C(=O)C[C@@H](C(=O)N(C)C)N(C)C(=O)[C@H](C2CCCC2)N(C)C1=O [PP0742] ([NMeL]I[Sar][Sar][NPrPhe(4-CF3)][Sar][hPhe(3,5-F2-4-CF3)]P[αMeS](Allyl)[NMeGly(cPent)][NMeD]-NMe2; lactam N-11)",B (a compound having 3 or more and less than 10 is denoted as B),B (a compound having 3 or more and less than 10 is denoted as B),73.3 nM,–,–
CC[C@H](C)[C@@H]1NC(=O)[C@H](CC(C)C)N(C)C(=O)C[C@@H](C(=O)N2CCOCC2)N(C)C(=O)[C@H](C2CCCC2)N(C)C(=O)C2(CCCC2)NC(=O)[C@@H]2CCCN2C(=O)[C@H](CCc2ccc(C(F)(F)F)c(Cl)c2)NC(=O)CN(C)C(=O)[C@H](Cc2ccc(C)cc2)N(CCOC)C(=O)CN(C)C(=O)CN(C)C1=O [PP0104] ([NMeL]I[Sar][Sar][X14][Sar][hPhe(3-Cl-4-CF3)]P[Ac5c][NMeGly(cPent)][NMeD]-Morpholide; lactam N-11),–,–,6.7 nM,C (A compound having a KD ratio of 0.1 or more and less than 3 is denoted as C),B (a compound having 3 or more and less than 10 is denoted as B)
CCO[C@@H]1C[C@H]2C(=O)NC3(CC(C)(C)C3)C(=O)N(C)[C@@H](C(CC)CC)C(=O)N(C)[C@H](C(=O)N(C)C)CC(=O)N(C)[C@@H](C(C)C)C(=O)N[C@@H]([C@@H](C)CC)C(=O)N(C)CC(=O)N(C)[C@H]3C/C=C\CCN(C3=O)[C@@H](Cc3ccc(C(F)(F)F)cc3)C(=O)N(C)CC(=O)N[C@@H](CCc3cc(F)c(C(F)(F)F)c(F)c3)C(=O)N2C1 [PP2135],A (a compound having 10 or more and less than 20 is denoted as A),AA (a compound having 20 or more is denoted as AA),15.7 nM,–,–
CCCN(C)C(=O)[C@@H]1CC(=O)N(C)[C@@H](C(C)C)C(=O)N[C@@H]([C@@H](C)CC)C(=O)N(C)CC(=O)N(C)[C@H]2C/C=C\CCN(C2=O)[C@@H](Cc2ccc(C(F)(F)F)cc2)C(=O)N(C)CC(=O)N[C@@H](CCc2cc(F)c(C(F)(F)F)c(F)c2)C(=O)N2C[C@@H](C)C[C@H]2C(=O)NC2(CCC2)C(=O)N(C)[C@@H](C2CCCC2)C(=O)N1C [PP2079],A (a compound having 10 or more and less than 20 is denoted as A),A (a compound having 10 or more and less than 20 is denoted as A),16 nM,–,–
